This assay deals with T1, PIN1 (Homo sapiens, UniProt Q13526).
T1 construct: recombinant human PIN1
As to the kind of experiment: trypsin-coupled PPIase assay (kinact/Ki; IC50 […]); LC/MS and MALDI MS/MS show a +[…] Da adduct on C113, absent in C113A. The assay is classed as biochemical. To be noted: read-out: Ki.

T1 sequence (Q13526 whole entry): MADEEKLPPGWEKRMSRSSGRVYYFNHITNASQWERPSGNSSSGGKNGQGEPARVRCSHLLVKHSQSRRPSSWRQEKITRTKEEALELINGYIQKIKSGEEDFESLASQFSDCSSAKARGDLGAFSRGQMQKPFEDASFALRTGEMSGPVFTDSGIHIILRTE

Regarding `CC(C)(C)c1ccc(S(=O)(=O)/N=C2/C=C(SCC(=O)O)C(=O)c3ccccc32)cc1` [compound 1], the KI (inactivation) worked out at 625 ± 325 nM.
